Data from patent US10723705B2, “Heterocyclic compounds and uses thereof” (Incyte Corporation, priority 2015, dated 2020).
Like-named read-outs stand apart in the source and are kept apart here.

Target: Human recombinant Histone Deacetylase 8 (HDAC8) (Homo sapiens (Human), UniProt Q9BY41)
Assay: HDAC8 Enzymatic Assay (HDAC-Glo I/II luminescence)
Assay type: biochemical
Procedure, shortened: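 Human recombinant HDAC8 (1.5 nM final) preincubated with compound for 30 min, then reacted with 50 μM Boc-GAK(Ac)-aminoluciferin plus trypsin-containing developer for 15 min at room temperature, pH 8.0, 0.5% DMSO. Luminescence read-out; IC50 from percent control activity versus log concentration.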

[1] = class symbols, Table 14, read-out: HDAC8 IC50

Sequence of Human recombinant Histone Deacetylase 8 (HDAC8) (Q9BY41 whole entry): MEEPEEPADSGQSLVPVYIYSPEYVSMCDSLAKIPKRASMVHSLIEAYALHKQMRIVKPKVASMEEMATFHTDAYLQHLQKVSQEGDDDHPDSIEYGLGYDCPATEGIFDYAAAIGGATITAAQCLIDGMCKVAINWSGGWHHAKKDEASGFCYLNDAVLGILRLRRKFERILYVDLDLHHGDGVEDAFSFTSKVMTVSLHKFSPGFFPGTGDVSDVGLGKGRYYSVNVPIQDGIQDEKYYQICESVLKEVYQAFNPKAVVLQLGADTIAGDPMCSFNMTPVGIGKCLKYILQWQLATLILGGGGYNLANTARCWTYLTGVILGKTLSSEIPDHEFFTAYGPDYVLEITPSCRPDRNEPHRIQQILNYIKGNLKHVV

## O=C(NO)C(Cc1ccccc1)n1ncc2ccc(-c3cnn(CCN4CCOCC4)c3)cc21 (centres unmarked) [Compound I-0143, N-hydroxy-2-(6-(1-(2-morpholinoethyl)-1H-pyrazol-4-yl)-1H-indazol-1-yl)-3-phenylpropanamide]
[1]
  IC50: > 500 nM

## CC(=O)N1CCN(c2cncc(-c3ccc4cnn(C(Cc5ccccc5)C(=O)NO)c4c3)c2)CC1 (centres unmarked) [Compound I-0144, 2-(6-(5-(4-acetylpiperazin-1-yl)pyridin-3-yl)-1H-indazol-1-yl)-N-hydroxy-3-phenylpropanamide]
[1]
  IC50: 50 to 200 nM

## CC1CCN(c2cccc3nn(C(Cc4ccccc4)C(=O)NO)cc23)CC1 (centres unmarked) [Compound I-0145, N-hydroxy-2-(4-(4-methylpiperidin-1-yl)-2H-indazol-2-yl)-phenylpropanamide]
HDAC8, read-out: IC50
  IC50: 717 nM

## CC(C)Oc1ccc(-c2cccc3nn(C(Cc4ccccc4)C(=O)NO)cc23)cn1 (centres unmarked) [Compound I-0146, N-hydroxy-2-(4-(6-isopropoxypyridin-3-yl)-2H-indazol-2-yl)-3-phenylpropanamide]
[1]
  IC50: 200 to 500 nM

## COCc1ccc(-c2cccc3nn(C(Cc4ccccc4)C(=O)NO)cc23)cc1 (centres unmarked) [Compound I-0147, N-hydroxy-2-(4-(4-(methoxymeth-yl)phenyl)-2H-indazol-2-yl)-3-phenylpropanamide]
[1]
  IC50: 200 to 500 nM

## CN1CCN(c2ccc(-c3cccc4nn(C(Cc5ccccc5)C(=O)NO)cc34)cc2)CC1 (centres unmarked) [Compound I-0148, N-hydroxy-2-(4-(4-(4-methylpiperazin-1-yl)phenyl)-2H-indazol-2-yl)-3-phenylpropanamide]
[1]
  IC50: 50 to 200 nM

## CN1CCN(c2ccc(-c3cccc4nn(C(Cc5ccccc5)C(=O)NO)cc34)cn2)CC1 (centres unmarked) [Compound I-0149, N-hydroxy-2-(4-(6-(4-methylpiperazin-1-yl)pyridin-3-yl)-2H-indazol-2-yl)-3-phenylpropanamide]
[1]
  IC50: 50 to 200 nM

## COCc1ccc(-c2ccn3c(C(Cc4ccccc4)C(=O)NO)cnc3c2)cc1 (centres unmarked) [Compound I-0150, N-hydroxy-2-(7-(4-(methoxymethyl)phenyl)imidazo[1,2-a]pyridin-3-yl)-3-phenylpropanamide]
[1]
  IC50: > 500 nM

## CN1CCN(c2ccc(-c3ccn4c(C(Cc5ccccc5)C(=O)NO)cnc4c3)cc2)CC1 (centres unmarked) [Compound I-0151, N-hydroxy-2-(7-(4-(4-methylpiperazin-1-yl)phenyl)imidazo[1,2-a]pyridin-3-yl)-3-phenylpropanamide]
[1]
  IC50: > 500 nM

## CN1CCN(c2ccc(-c3ccn4c(C(Cc5ccccc5)C(=O)NO)cnc4c3)cn2)CC1 (centres unmarked) [Compound I-0152, N-hydroxy-2-(7-(6-(4-methylpiperazin-1-yl)pyridin-3-yl)imidazo[1,2-a]pyridin-3-yl)-3-phenylpropanamide]
[1]
  IC50: 200 to 500 nM

## O=C(NO)C(Cc1ccccc1)n1ncc2cc(C3CCC(N4CCCC4)CC3)ccc21 (centres unmarked) [Compound I-0153, N-hydroxy-3-phenyl-2-(5-(4-(pyrrolidin-1-yl)cyclohexyl)-1H-indazol-1-yl)propanamide]
[1]
  IC50: 50 to 200 nM

## O=C(NO)C(Cc1ccccc1)n1nc2c(-c3ccncc3)cccc2c1C#CC1CC1 (centres unmarked) [Compound I-0154, 2-(3-(cyclopropylethynyl)-7-(pyridin-4-yl)-2H-indazol-2-yl)-N-hydroxy-3-phenylpropanamide]
[1]
  IC50: ≤ 50 nM

## O=C(NO)C(Cc1ccccc1)n1nc2c(-c3cccnc3)cccc2c1C#CC1CC1 (centres unmarked) [Compound I-0155, 2-(3-(cyclopropylethynyl)-7-(pyridin-3-yl)-2H-indazol-2-yl)-N-hydroxy-3-phenylpropanamide]
[1]
  IC50: ≤ 50 nM

## O=C(NO)C(Cc1ccccc1)n1nc2c(-c3cncnc3)cccc2c1C#CC1CC1 (centres unmarked) [Compound I-0156, 2-(3-(cyclopropylethynyl)-7-(pyrimidin-5-yl)-2H-indazol-2-yl)-N-hydroxy-3-phenylpropanamide]
[1]
  IC50: ≤ 50 nM

## NC(=O)c1cccc(-c2cccc3c(C#CC4CC4)n(C(Cc4ccccc4)C(=O)NO)nc23)c1 (centres unmarked) [Compound I-0157, 3-(3-(cyclopropylethynyl)-2-(1-(hydroxyamino)-1-oxo-3-phenylpropan-2-yl)-2H-indazol-7-yl)benzamide]
[1]
  IC50: ≤ 50 nM

## CNC(=O)c1cccc(-c2cccc3c(C#CC4CC4)n(C(Cc4ccccc4)C(=O)NO)nc23)c1 (centres unmarked) [Compound I-0158, 3-(3-(cyclopropylethynyl)-2-(1-(hydroxyamino)-1-oxo-3-phenylpropan-2-yl)-2H-indazol-7-yl)-N-methylbenzamide]
[1]
  IC50: ≤ 50 nM

## CN(C)C(=O)c1cccc(-c2cccc3c(C#CC4CC4)n(C(Cc4ccccc4)C(=O)NO)nc23)c1 (centres unmarked) [Compound I-0159, 3-(3-(cyclopropylethynyl)-2-(1-(hydroxyamino)-1-oxo-3-phenylpropan-2-yl)-2H-indazol-7-yl)-N,N-dimethylbenzamide]
[1]
  IC50: ≤ 50 nM

## O=C(NO)C(Cc1ccccc1)n1nc2c(C3CC3)cccc2c1C#CC1CC1 (centres unmarked) [Compound I-0160, 2-(7-cyclopropyl-3-(cyclopropylethynyl)-2H-indazol-2-yl)-N-hydroxy-3-phenylpropanamide]
[1]
  IC50: ≤ 50 nM

## Cc1cccc2c(C#CC3CC3)n(C(Cc3ccccc3)C(=O)NO)nc12 (centres unmarked) [Compound I-0161, 2-(3-(cyclopropylethynyl)-7-methyl-2H-indazol-2-yl)-N-hydroxy-3-phenylpropanamide]
[1]
  IC50: ≤ 50 nM

## O=C(NO)C(Cc1ccccc1)c1cnc2c(-c3ccncc3)cccn12 (centres unmarked) [Compound I-0162, N-hydroxy-3-phenyl-2-(8-(pyridin-4-yl)imidazo[1,2-a]pyridin-3-yl)propanamide]
[1]
  IC50: 200 to 500 nM

## O=C(NO)C(Cc1ccccc1)c1cnc2c(-c3cccnc3)cccn12 (centres unmarked) [Compound I-0163, N-hydroxy-3-phenyl-2-(8-(pyridin-3-yl)imidazo[1,2-a]pyridin-3-yl)propanamide]
[1]
  IC50: > 500 nM

## O=C(NO)C(Cc1ccccc1)c1cnc2c(-c3cncnc3)cccn12 (centres unmarked) [Compound I-0164, N-hydroxy-3-phenyl-2-(8-pyrimidin-5-ylimidazo[1,2-a]pyridin-3-yl)propanamide]
[1]
  IC50: > 500 nM

## COCCn1cc(-c2cccc3c(C#CC4CC4)n(C(Cc4ccccc4)C(=O)NO)nc23)c(C)n1 (centres unmarked) [Compound I-0165, 2-(3-(cyclopropylethynyl)-7-(1-(2-methoxyethyl)-3-methyl-1H-pyrazol-4-yl)-2H-indazol-2-yl)-N-hydroxy-3-phenylpropanamide]
[1]
  IC50: ≤ 50 nM

## Cc1n[nH]cc1-c1cccc2c(C#CC3CC3)n(C(Cc3ccccc3)C(=O)NO)nc12 (centres unmarked) [Compound I-0166, 2-(3-(cyclopropylethynyl)-7-(3-methyl-1H-pyrazol-4-yl)-2H-indazol-2-yl)-N-hydroxy-3-phenylpropanamide]
[1]
  IC50: ≤ 50 nM

## NC(=O)c1ccc(-c2cccn3c(C(Cc4ccccc4)C(=O)NO)cnc23)cc1 (centres unmarked) [Compound I-0167, 4-(3-(1-(hydroxyamino)-1-oxo-3-phenylpropan-2-yl)imidazo[1,2-a]pyridin-8-yl)benzamide]
[1]
  IC50: 200 to 500 nM

## CN(C)C(=O)c1ccc(-c2cccn3c(C(Cc4ccccc4)C(=O)NO)cnc23)cc1 (centres unmarked) [Compound I-0168, 4-(3-(1-(hydroxyamino)-1-oxo-3-phenylpropan-2-yl)imidazo[1,2-a]pyridin-8-yl)-N,N-dimethylbenzamide]
[1]
  IC50: > 500 nM

## NC(=O)c1cccc(-c2cccn3c(C(Cc4ccccc4)C(=O)NO)cnc23)c1 (centres unmarked) [Compound I-0169, 3-(3-(1-(hydroxyamino)-1-oxo-3-phenylpropan-2-yl)imidazo[1,2-a]pyridin-8-yl)benzamide]
[1]
  IC50: 200 to 500 nM

## O=C(NO)C(Cc1ccccc1)c1cnc2c(C3CC3)cccn12 (centres unmarked) [Compound I-0170, 2-(8-cyclopropylimidazo[1,2-a]pyridin-3-yl)-N-hydroxy-3-phenylpropanamide]
[1]
  IC50: > 500 nM

## Cc1cccn2c(C(Cc3ccccc3)C(=O)NO)cnc12 (centres unmarked) [Compound I-0171, N-hydroxy-2-(8-methylimidazo[1,2-a]pyridin-3-yl)-3-phenylpropanamide]
[1]
  IC50: 200 to 500 nM

## COC(=O)C(Cc1ccccc1)n1cc2cccc(C(=O)N3CCC(F)(F)CC3)c2n1 (centres unmarked) [Compound I-0172, methyl 2-(7-(4,4-difluoropiperidine-1-carbonyl)-2H-indazol-2-yl)-3-phenylpropanoate]
[1]
  IC50: 200 to 500 nM

## O=C(NO)C(Cc1ccccc1)n1cc2cccc(C(=O)N3CCOCC3)c2n1 (centres unmarked) [Compound I-0173, N-hydroxy-2-[7-(morpholin-4-ylcarbonyl)-2H-indazol-2-yl]-3-phenylpropanamide]
HDAC8, read-out: IC50
  IC50: 1170 nM
[1]
  IC50: > 500 nM

## O=C(NO)C(Cc1ccccc1)n1cc2cccc(C(=O)N3CCC4(CC3)COC4)c2n1 (centres unmarked) [Compound I-0174, 2-(7-(2-oxa-7-azaspiro[3.5]nonane-7-carbonyl)-2H-indazol-2-yl)-N-hydroxy-3-phenylpropanamide]
[1]
  IC50: > 500 nM

## O=C(NO)C(Cc1ccccc1)n1cc2cccc(C(=O)N3CCC4(CCOCC4)CC3)c2n1 (centres unmarked) [Compound I-0175, 2-(7-(3-oxa-9-azaspiro[5.5]undecane-9-carbonyl)-2H-indazol-2-yl)-N-hydroxy-3-phenylpropanamide]
[1]
  IC50: > 500 nM

## O=C(NC1CCOCC1)c1cccc2cn(C(Cc3ccccc3)C(=O)NO)nc12 (centres unmarked) [Compound I-0176, 2-(1-(hydroxyamino)-1-oxo-3-phenylpropan-2-yl)-N-(tetrahydro-2H-pyran-4-yl)-2H-indazole-7-carboxamide]
[1]
  IC50: 50 to 200 nM

## O=C(NCC1CCOCC1)c1cccc2cn(C(Cc3ccccc3)C(=O)NO)nc12 (centres unmarked) [Compound I-0177, 2-(1-(hydroxyamino)-1-oxo-3-phenylpropan-2-yl)-N-((tetrahydro-2H-pyran-4-yl)methyl)-2H-indazole-7-carboxamide]
[1]
  IC50: ≤ 50 nM

## O=C(NCCC1CCOCC1)c1cccc2cn(C(Cc3ccccc3)C(=O)NO)nc12 (centres unmarked) [Compound I-0178, 2-(1-(hydroxyamino)-1-oxo-3-phenylpropan-2-yl)-N-(2-(tetrahydro-2H-pyran-4-yl)ethyl)-2H-indazole-7-carboxamide]
[1]
  IC50: ≤ 50 nM

## O=C(NCCN1CCOCC1)c1cccc2cn(C(Cc3ccccc3)C(=O)NO)nc12 (centres unmarked) [Compound I-0179, 2-(1-(hydroxyamino)-1-oxo-3-phenylpropan-2-yl)-N-(2-morpholinoethyl)-2H-indazole-7-carboxamide]
[1]
  IC50: 50 to 200 nM
